# Measurements taken from patent US5965088A, “Method for providing rapid disinfection of contact lenses” (priority 1997, dated 1999).
# Where “and” joins values, the source holds several entries; their conditions need not be identical. Equal values may be shown once.
# How the values were obtained:
# [1] = system: Pseudomonas aeruginosa, Staphylococcus aureus, Serratia marcescens, Candida albicans, Fusarium solani; assay: Stand-Alone Procedure, secondary performance criteria (entrance into the regimen test); type: cell-based, bacteria, yeast and mold; details: for 10 minute entrance into the regimen: 10 min; for secondary performance criteria: 4.0 ppm, Example 12
# Protocol: This Example illustrates the microbiocidal efficacy of solutions according to the present invention. The antimicrobial efficacy of each of various compositions for the chemical disinfection of contact lenses was evaluated. Microbial challenge inoculums were prepared using Pseudomonas aeruginosa (ATCC 9027), Staphylococcus aureus (ATCC 6538), Serratia marcescens (ATCC 13880), Candida albicans (ATCC 10231), and Fusarium solani (ATCC 36031). The test organisms were cultured on appropriate agar and the cultures were harvested using sterile DPBST (Dulbecco's Phosphate Buffered Saline plus 0.05% w/v polysorbate 80) or a suitable diluent and transferred to a suitable vessel. Spore suspensions were filtered through sterile glass wool to remove hyphal fragments. Serratia marcescens, as appropriate, was filtered (eg., through a 1.2 μ filter) to clarify the suspension. After harvesting, the suspension was centrifuged at no more than 5000× g for a maximum of 30 minutes at 20-25° C. The supernatant was poured off and resuspended in DPBST or other suitable diluent. The suspension was centrifuged a second time, and resuspended in DPBST or other suitable diluent. All challenge bacterial and fungal cell suspensions were adjusted with DPBST or other suitable diluent to 1×10^7 -10^8 cfu/mL. The appropriate cell concentration may be estimated by measuring the turbidity of the suspension, for example using a spectrophotometer at a preselected wavelength, for example 490 nm. One tube was prepared containing a minimum of 10 mL of test solution per challenge organism. Each tube of the solution to be tested was inoculated with a suspension of the test organism sufficient to provide a final count of 1.0×10^5 -10^6 cfu/mL, the volume of the inoculum not exceeding 1% of the sample volume. Dispersion of the inoculum was ensured by vortexing the sample for at least 15 seconds. The inoculated product was stored at 10-25° C. Aliquots in the amount of 1.0 mL were taken of the inoculated product for determination of viable counts after certain time periods of disinfection. […] The viable count of organisms was determined in appropriate dilutions by preparation of triplicate plates of trypticase soy (TSA) agar for bacteria and Sabouraud dextrose agar (SDA) for mold and yeast. […] The average number of colony forming units was determined on countable plates. […] The microbial reduction was then calculated at the specified time points. […]
# The solutions were evaluated based on the performance requirement referred to as the "Stand-Alone Procedure for Disinfecting Products" (hereafter the "stand-alone test") and is based on the Disinfection Efficacy Testing for contact lens care products under the Draft Premarket Notification (510(k)) Guidance Document For Contact Lens Care Products dated Apr. […]
# [2] = system: rabbit eye (cornea, iris, conjunctivae); assay: Ocular irritation screening study in the rabbit (Draize score, soaked soft lenses); type: in vivo; design: key to Draize macroscopic ocular score (weighted total): Draize weighted total score; max 110 per eye; details: for Draize macroscopic ocular score (weighted total): right (test) eye
# Protocol: (§1) A series of formulations were prepared in which the amount of alexidine were, respectively 4 ppm (test 1), 6 ppm (test 2), 8 ppm (test 3), 10 ppm (test 4), 12 ppm (test 5), 15 ppm (test 6), 18 ppm (test 7), 22 ppm (test 8), 27 ppm (test 9), 33 ppm (test 10), 40 ppm (test 11) and 50 ppm (test 12). These test solutions of alexidine were used in soaking J&J Sure Vue® (etafilcon A) lenses (soft lenses) in 2.5 mL of solution for 1 week or more in order to reach maximal alexidine uptake.
# (§2) An ocular irritation screening study was conducted in the rabbit to determine the threshold for ocular irritation. Eyes treated with the lenses were compared to a contralateral control eye. Treated lenses were placed on the right eye of rabbits; control lenses were placed on the left eye. Any lenses displaced from the eyes during the lens wear day were reinserted after rinsing with 0.9% sodium chloride USP solution (SC). Eyes were examined with the aid of a direct light source before lens placement, at 50-70 minutes, 7-8 hours, 23-24 hours, and 30-32 hours after placement. Macroscopic observations were recorded in accordance with criteria in the Draize^* score system. The maximum total score is the sum of all scores obtained for the cornea, iris, and conjunctivae. Total maximum score possible is 110 per eye, 80 with respect to the cornea, 10 with respect to the iris, and 20 with respect to the conjunctivae.
# (§3) *Draize, J. H., G. Woodward and H. O. Calvery. 1944. Methods for the study of irritation and toxicity of substances applied topically to the skin and mucous membranes. J. Pharmacol. Exp. Ther. 82:377-390.
# [3] = as above; type: in vivo; design: key to Draize macroscopic ocular score (weighted total): Draize weighted total score; max 110 per eye; details: rabbit, in vivo, topical or ocular; 4 ppm formulation; rabbits; read-out: safety margin relative to initial onset of abnormal ocular health
# Protocol: as §1, §2, §3
structure (smiles),measurement,setting,value
"CCCCC(CC)CNC(=N)NC(=N)NCCCCCCNC(=N)NC(=N)NCC(CC)CCCC.Cl.Cl (stereo not shown) [Alexidine.2HCl, 1,1 '-hexamethylenebis(5-(2-ethylhexyl)-biguanide) dihydrochloride]",10 minute entrance into the regimen,[1]; 1.0 ppm,does not pass the 10 minute entrance into the regimen
same,10 minute entrance into the regimen,[1]; 2.0 ppm,passes the 10 minute entrance into the regimen
same,secondary performance criteria,[1]; soak 2.5 min,failed in all cases
same,secondary performance criteria,[1]; soak 10 min,met in all cases
same,safety in disinfecting soft lenses,"[2]; 4.0 ppm, based on rabbit studies",very safe for human use in disinfecting soft lenses
same,Draize macroscopic ocular score (weighted total),"[2]; 4 ppm, 7-8 hours post lens",2
same,Draize macroscopic ocular score (weighted total),"[2]; 4 ppm, 23-24 hours post lens",2
same,Draize macroscopic ocular score (weighted total),"[2]; 4 ppm, 30-32 hours post lens",2
same,Draize macroscopic ocular score (weighted total),"[2]; 4 ppm, 50-70 minutes post lens",2
same,Draize macroscopic ocular score (weighted total),"[2]; 6 ppm, 7-8 hours post lens",2
same,Draize macroscopic ocular score (weighted total),"[2]; 6 ppm, 23-24 hours post lens",2
same,Draize macroscopic ocular score (weighted total),"[2]; 6 ppm, 30-32 hours post lens",2
same,Draize macroscopic ocular score (weighted total),"[2]; 6 ppm, 50-70 minutes post lens",2
same,Draize macroscopic ocular score (weighted total),"[2]; 8 ppm, 7-8 hours post lens",2
same,Draize macroscopic ocular score (weighted total),"[2]; 8 ppm, 23-24 hours post lens",2
same,Draize macroscopic ocular score (weighted total),"[2]; 8 ppm, 30-32 hours post lens",2
same,Draize macroscopic ocular score (weighted total),"[2]; 8 ppm, 50-70 minutes post lens",2
same,Draize macroscopic ocular score (weighted total),"[2]; 10 ppm, 7-8 hours post lens, dihydrochloride",4 and 2
same,Draize macroscopic ocular score (weighted total),"[2]; 10 ppm, 50-70 minutes post lens",2
same,Draize macroscopic ocular score (weighted total),"[2]; 12 ppm, 7-8 hours post lens",2
same,Draize macroscopic ocular score (weighted total),"[2]; 12 ppm, 23-24 hours post lens",2
same,Draize macroscopic ocular score (weighted total),"[2]; 12 ppm, 30-32 hours post lens",2
same,Draize macroscopic ocular score (weighted total),"[2]; 12 ppm, 50-70 minutes post lens",2
same,Draize macroscopic ocular score (weighted total),"[2]; 15 ppm, 7-8 hours post lens",4
same,Draize macroscopic ocular score (weighted total),"[2]; 15 ppm, 30-32 hours post lens",2
same,Draize macroscopic ocular score (weighted total),"[2]; 15 ppm, 50-70 minutes post lens, dihydrochloride",2 and 4
same,Draize macroscopic ocular score (weighted total),"[2]; 18 ppm, 7-8 hours post lens",6
same,Draize macroscopic ocular score (weighted total),"[2]; 18 ppm, 23-24 hours post lens",2
same,Draize macroscopic ocular score (weighted total),"[2]; 18 ppm, 30-32 hours post lens",2
same,Draize macroscopic ocular score (weighted total),"[2]; 18 ppm, 50-70 minutes post lens",2
same,Draize macroscopic ocular score (weighted total),"[2]; 22 ppm, 7-8 hours post lens",11
same,Draize macroscopic ocular score (weighted total),"[2]; 22 ppm, 23-24 hours post lens",2
same,Draize macroscopic ocular score (weighted total),"[2]; 22 ppm, 30-32 hours post lens",2
same,Draize macroscopic ocular score (weighted total),"[2]; 22 ppm, 50-70 minutes post lens",2
same,Draize macroscopic ocular score (weighted total),"[2]; 27 ppm, 50-70 minutes post lens",2
same,conjunctival reaction clearly defined,[2]; lenses soaked in solution,15 ppm
same,corneal opacity observed,[2]; lenses soaked in solution,27 ppm
same,iridial involvement observed,[2]; lenses soaked in solution,22 ppm
same,first signs of increased ocular toxicity (conjunctival reactions),"[2]; lenses soaked, after 7-8 hours of lens wear",10 ppm
same,selectivity ratio,[3],2.5
